According to patent publication US11747352B2 (Concordia University, Inc., priority 2017, dated 2023):
Read-outs that look alike come from different tables or passages of the source. Marks after values point to notes of the source that are not given here.

Tests used:
[1] = cited from earlier work
CYP3A = conditions: cited from earlier work
CYP3A5 [2] = target: T1, CYP3A5 (Homo sapiens, UniProt P20815); conditions: cited from earlier work
[3] = Eplerenone metabolism via pooled human liver microsomes (HLM150); type: in vitro ADME; conditions: human, pooled human liver microsomes (HLM150, 150 donors), HLM 150, Corning/BD
[4] = system: human liver microsomes (HLM150); assay: as above; type: in vitro ADME; conditions: for Vmax: HLM 150, Corning/BD
[5] = system: human liver microsomes (HLM, Xenotech); conditions: cited from earlier work
[6] = cited from earlier work; for ORAL BIOAVAILABILITY: Table CYP3A4; for F %: Table of Tyrosine Kinase Inhibitor Substrates, CYP3A4
CYP3A5 [7] = target: T1, CYP3A5; assay: Tacrolimus metabolism by rhCYP3A5 (Kamdem et al. 2005); type: in vitro ADME; conditions: rhCYP3A5 vs rhCYP3A4
plasma protein = conditions: Table of Tyrosine Kinase Inhibitor Substrates; cited from earlier work
[8] = Table of Tyrosine Kinase Inhibitor Substrates; cited from earlier work
[9] = substrate: COC(=O)[C@@H]1CC2=CC(=O)CC[C@]2(C)[C@@]23O[C@@H]2C[C@@]2(C)[C@@H](CC[C@@]24CCC(=O)O4)[C@H]13; assay: cells, lysate or membranes named; type: in vitro ADME, human

COC(=O)[C@H]1[C@H]2[C@@H]3CC[C@@]4(CCC(=O)O4)[C@@]3(C)C[C@H]3O[C@@]23[C@@]2(C)CCC(=O)C=C2[C@@H]1O [6OH-EP, 6β-hydroxyeplerenone]
Compound Type ([1]; SimCYP model parameter): Neutral
Blood/plasma ratio [1]: 1

COC(=O)[C@@H]1CC2=CC(=O)CC[C@]2(C)[C@@]23O[C@@H]2C[C@@]2(C)[C@@H](CC[C@@]24CC(O)C(=O)O4)[C@H]13 (some centres unmarked) [21OH-EP, 21-hydroxyeplerenone]
Compound Type ([1]; SimCYP model parameter): Neutral
Blood/plasma ratio [1]: 1

Cc1nnc2n1-c1ccc(Cl)cc1C(c1ccccc1)=NC2 [Alprazolam]
All CYP3A (% Metabolism) (CYP3A): 62%
CYP3A5 (% Metabolism) (CYP3A5 [2]): <10%

COC(=O)[C@@H]1CC2=CC(=O)CC[C@]2(C)[C@@]23O[C@@H]2C[C@@]2(C)[C@@H](CC[C@@]24CCC(=O)O4)[C@H]13 [Eplerenone]
Km at 10 min ([3]; 6β-OH metabolite formation): 473 µM
Km at 10 min ([3]; 21-OH metabolite formation): 197 µM
Vmax ([4]; 6β-OH metabolite formation): 1493 pmol/min/mg
Vmax ([4]; 21-OH metabolite formation): 216 pmol/min/mg
ISEF for recombinant CYP3A4/5 ([4]; HLM 150 vs rhCYP3A4 and rhCYP3A5 clearances, Eq. 1): 1.0
Km ([5]; 6β-OH metabolite formation): 217 µM
Vmax ([5]; 6β-OH metabolite formation): 973 pmol/min/mg
Km ([5]; 21-OH metabolite formation): 211 µM
Vmax ([5]; 21-OH metabolite formation): 143 pmol/min/mg
Permeability model Caco-2 ([1]; Caco-2): Caco-2 (24* 10^−6 cm/s)
Compound Type ([1]; SimCYP model parameter): Neutral
ka ([1]; SimCYP model parameter): 1.647 h⁻¹

Cc1ncc2n1-c1ccc(Cl)cc1C(c1ccccc1F)=NC2 [Midazolam]
AUC fold higher than average (CYP3A4/5): 2.3 fold
AUC fold lower than the mean (CYP3A4/5): 4.1 fold
All CYP3A (% Metabolism) (CYP3A): 92%
CYP3A5 (% Metabolism) (CYP3A5 [2]): 43%

C=C[C@H]1C[N@@]2CC[C@H]1C[C@@H]2[C@@H](O)c1ccnc2ccc(OC)cc12 [Quinidine]
ORAL BIOAVAILABILITY [6]: 70-80% ^
All CYP3A (% Metabolism) (CYP3A): 93%

CC(C)(C)NC(=O)[C@@H]1C[C@@H]2CCCC[C@@H]2CN1C[C@@H](O)[C@H](Cc1ccccc1)NC(=O)[C@H](CC(N)=O)NC(=O)c1ccc2ccccc2n1 [Saquinavir]
All CYP3A (% Metabolism) (CYP3A): 99%
CYP3A5 (% Metabolism) (CYP3A5 [2]): 11%

C=CC[C@@H]1/C=C(\C)C[C@H](C)C[C@H](OC)[C@H]2O[C@@](O)(C(=O)C(=O)N3CCCC[C@H]3C(=O)O[C@H](/C(C)=C/[C@@H]3CC[C@@H](O)[C@H](OC)C3)[C@H](C)[C@@H](O)CC1=O)[C@H](C)C[C@@H]2OC [Tacrolimus]
higher catalytic efficiency via CYP3A5 (CYP3A5 [7]): 60%
ORAL BIOAVAILABILITY [6]: 17-31% ^

Cc1nnc2n1-c1ccc(Cl)cc1C(c1ccccc1Cl)=NC2 [Triazolam]
All CYP3A (% Metabolism) (CYP3A): 92%
CYP3A5 (% Metabolism) (CYP3A5 [2]): 25%

Cc1ccc(Nc2nccc(N(C)c3ccc4c(C)n(C)nc4c3)n2)cc1S(N)(=O)=O [pazopanib]
F % [6]: 14-21%
Protein binding % (plasma protein): >99.5%
T½ [8]: 30.9 to 31.9 h

CNC(=O)c1cc(Oc2ccc(NC(=O)Nc3ccc(Cl)c(C(F)(F)F)c3)cc2)ccn1 [sorafenib]
F % [6]: 38-49%
Protein binding % (plasma protein): 99.5%
T½ [8]: 25 to 48 h

B1: rhCYP3A5 (Homo sapiens) (protein)
chain: MDLIPNLAVETWLLLAVSLVLLYLYGTRTHGLFKRLGIPGPTPLPLLGNVLSYRQGLWKFDTECYKKYGKMWGTYEGQLPVLAITDPDVIRTVLVKECYSVFTNRRSLGPVGFMKSAISLAEDEEWKRIRSLLSPTFTSGKLKEMFPIIAQYGDVLVRNLRREAEKGKPVTLKDIFGAYSMDVITGTSFGVNIDSLNNPQDPFVESTKKFLKFGFLDPLFLSIILFPFLTPVFEALNVSLFPKDTINFLSKSVNRMKKSRLNDKQKHRLDFLQLMIDSQNSKETESHKALSDLELAAQSIIFIFAGYETTSSVLSFTLYELATHPDVQQKLQKEIDAVLPNKAPPTYDAVVQMEYLDMVVNETLRLFPVAIRLERTCKKDVEINGVFIPKGSMVVIPTYALHHDPKYWTEPEEFRPERFSKKKDSIDPYIYTPFGTGPRNCIGMRFALMNMKLALIRVLQNFSFKPCKETQIPLKLDTQGLLQPEKPIVLKVDSRDGTLSGE
notes: purchased BD Biosciences/Corning
Km ([9]; other: 6β-OH metabolite formation, rhCYP3A5 (printed rhCYPA5)): 142 mcM
Km ([9]; other: 21-OH metabolite formation, rhCYP3A5): 72 mcM
